For one assay, the target named is Monoamine transporters; serotonin & dopamine (Homo sapiens) (UniProt P31645+Q01959). Put plainly: Selectivity ratio measured as the IC50 ratio of DAT receptor to that of 5-HT transporter. To be noted: Cercopithecidae.
Sodium-dependent serotonin transporter, sequence (P31645 whole entry): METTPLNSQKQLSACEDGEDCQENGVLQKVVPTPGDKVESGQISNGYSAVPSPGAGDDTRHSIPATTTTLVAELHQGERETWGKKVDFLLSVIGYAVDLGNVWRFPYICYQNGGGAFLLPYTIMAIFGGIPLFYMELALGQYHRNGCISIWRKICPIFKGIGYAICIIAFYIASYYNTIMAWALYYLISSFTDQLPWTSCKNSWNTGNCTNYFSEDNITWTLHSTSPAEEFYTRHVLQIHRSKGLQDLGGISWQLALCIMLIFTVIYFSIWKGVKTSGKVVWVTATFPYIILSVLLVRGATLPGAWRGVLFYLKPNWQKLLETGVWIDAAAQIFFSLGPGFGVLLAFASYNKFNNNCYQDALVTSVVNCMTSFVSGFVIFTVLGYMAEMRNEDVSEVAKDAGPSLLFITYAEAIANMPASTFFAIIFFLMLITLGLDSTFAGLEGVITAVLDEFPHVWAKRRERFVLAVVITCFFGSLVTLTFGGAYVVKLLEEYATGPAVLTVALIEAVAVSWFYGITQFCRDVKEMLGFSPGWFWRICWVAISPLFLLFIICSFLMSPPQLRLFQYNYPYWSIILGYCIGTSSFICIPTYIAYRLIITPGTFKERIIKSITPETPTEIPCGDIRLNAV
Monoamine transporters; serotonin & dopamine (Homo sapiens), sequence (P31645 whole entry, looked up): as the sequence (P31645 whole entry) above
Monoamine transporters; serotonin & dopamine (Homo sapiens), sequence (Q01959 whole entry, looked up): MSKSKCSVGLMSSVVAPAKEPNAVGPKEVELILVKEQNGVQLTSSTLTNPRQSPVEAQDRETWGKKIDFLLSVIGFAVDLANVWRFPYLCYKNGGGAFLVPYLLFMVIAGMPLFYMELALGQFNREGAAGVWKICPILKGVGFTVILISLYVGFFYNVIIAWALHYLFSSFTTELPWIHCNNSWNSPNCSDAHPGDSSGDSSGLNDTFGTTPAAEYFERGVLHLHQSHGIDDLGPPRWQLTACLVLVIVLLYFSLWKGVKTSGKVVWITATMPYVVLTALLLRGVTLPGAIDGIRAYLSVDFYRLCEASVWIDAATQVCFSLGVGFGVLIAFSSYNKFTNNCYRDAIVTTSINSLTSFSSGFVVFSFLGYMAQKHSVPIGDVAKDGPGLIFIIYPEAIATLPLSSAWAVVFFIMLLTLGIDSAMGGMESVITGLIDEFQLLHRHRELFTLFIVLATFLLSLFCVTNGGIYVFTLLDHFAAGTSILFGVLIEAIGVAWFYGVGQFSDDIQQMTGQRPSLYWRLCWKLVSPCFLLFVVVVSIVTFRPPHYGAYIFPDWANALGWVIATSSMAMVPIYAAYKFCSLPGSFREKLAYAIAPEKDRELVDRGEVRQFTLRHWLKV
For the compound `COC(=O)C1C2CCC(CC1c1ccc(Br)cc1)O2` (stereo in doubt; form 2) [listing 1 of 2 here], the Selectivity ratio came out at 31.

With `COC(=O)C1C2CCC(CC1c1ccc(Cl)cc1)O2` (stereo in doubt; 6c (O-916)) [listing 1 of 2 here], the Selectivity ratio amounted to 11.

For `COC(=O)C1C2CCC(CC1c1ccc(Cl)c(Cl)c1)O2` (stereo in doubt; form 1) [listing 1 of 2 here], the Selectivity ratio came out at 1.2.

As to `COC(=O)C1C2CCC(CC1c1ccc(Cl)cc1)O2` (stereo in doubt; 7c (O-915)) [listing 1 of 2 here], the Selectivity ratio is 29.

With `COC(=O)C1C2CCC(CC1c1ccc(I)cc1)O2` (stereo in doubt) [listing 1 of 2 here], the Selectivity ratio is 1.7.

For the compound `COC(=O)C1C2CCC(CC1c1ccc(Cl)c(Cl)c1)O2` (stereo in doubt; 6f (O-914)) [listing 1 of 2 here], the Selectivity ratio was determined as 2.

For `COC(=O)C1C2CCC(CC1c1ccc(Cl)c(Cl)c1)O2` (stereo in doubt; form 4) [listing 1 of 2 here], the Selectivity ratio was found to be 1.4.

Consider `COC(=O)C1C2CCC(CC1c1ccc(I)cc1)O2` (stereo in doubt; 7e (O-949)) [listing 1 of 2 here], for which the Selectivity ratio came to 2.

Consider `COC(=O)C1C2CCC(CC1c1ccc(Br)cc1)O2` (stereo in doubt; form 1) [listing 1 of 2 here], for which the Selectivity ratio was 1.4.

Consider `COC(=O)C1C2CCC(CC1c1ccccc1)O2` (stereo in doubt; 7a (O-905)) [listing 1 of 2 here], for which the Selectivity ratio was determined as 6.

For the compound `COC(=O)C1C2CCC(CC1c1ccccc1)O2` (stereo in doubt; 6a (O-904)) [listing 1 of 2 here], the Selectivity ratio turned out to be 10.

With `COC(=O)C1C2CCC(CC1c1ccc(Cl)c(Cl)c1)O2` (stereo in doubt; form 3) [listing 1 of 2 here], the Selectivity ratio came out at 13.

With `COC(=O)C1C2CCC(CC1c1ccc(Cl)c(Cl)c1)O2` (stereo in doubt; form 2) [listing 1 of 2 here], the Selectivity ratio amounted to 51.

As for `COC(=O)C1C2CCC(CC1c1ccc(F)cc1)O2` (stereo in doubt; 7b (O-899)) [listing 1 of 2 here], the Selectivity ratio is 10.

As for `COC(=O)C1C2CCC(CC1c1ccc(F)cc1)O2` (stereo in doubt; 6b (O-895)) [listing 1 of 2 here], the Selectivity ratio worked out at 5.

With `COC(=O)C1C2CCC(CC1c1ccc(Cl)c(Cl)c1)O2` (stereo in doubt; 7f (O-913)) [listing 1 of 2 here], the Selectivity ratio worked out at 21.

The next assay concerns the target Sodium-dependent serotonin transporter (Homo sapiens, UniProt P31645). The experiment in a line: Inhibition of [3H]citalopram binding to the serotonin transporter (5-HT) in monkey caudate-putamen. It is filed as tissue-based, Cercopithecidae. To be noted: target entry is the homologue from another species.
One may read the IC50 as the midpoint of a concentration-inhibition curve. `COC(=O)[C@H]1[C@@H](c2ccc(F)cc2)C[C@H]2CC[C@H]1N2C` (stereo in doubt; 19b) registered an IC50 of 5.06 µM.

`COC(=O)C1C(c2ccc(Cl)c(Cl)c2)CC2CCC1N2C` (stereo in doubt; form 1): the IC50 came to 0.027 µM.

`COC(=O)C1C2CCC(CC1c1ccccc1)O2` (stereo in doubt; 7a (O-905)) [listing 2 of 2 here] showed an IC50 of 11.4 µM.

Regarding `COC(=O)C1C2CCC(CC1c1ccccc1)O2` (stereo in doubt; 6a (O-904)) [listing 2 of 2 here], the IC50 was > 10 µM.

`COC(=O)C1C2CCC(CC1c1ccc(Cl)c(Cl)c1)O2` (stereo in doubt; form 4) [listing 2 of 2 here] showed an IC50 of 0.00467 µM.

Compound `COC(=O)C1C2CCC(CC1c1ccc(Cl)cc1)O2` (stereo in doubt; 6c (O-916)) [listing 2 of 2 here] came in with a half-maximal inhibitory concentration (IC50) of 0.107 µM.

Compound `COC(=O)C1C2CCC(CC1c1ccc(Br)cc1)O2` (stereo in doubt; form 1) [listing 2 of 2 here] had an IC50 of 0.03 µM.

Compound `COC(=O)C1C(c2ccc(I)cc2)CC2CCC1N2C` (stereo in doubt; 8d) came in with an IC50 of 0.00421 µM.

With `COC(=O)C1C2CCC(CC1c1ccc(Br)cc1)O2` (stereo in doubt; form 2) [listing 2 of 2 here], the concentration for half-maximal inhibition (IC50) turned out to be 0.276 µM.

The compound `COC(=O)C1C2CCC(CC1c1ccc(F)cc1)O2` (stereo in doubt; 6b (O-895)) [listing 2 of 2 here] returned a 50% inhibitory concentration (IC50) of 2.58 µM.

In turn, `COC(=O)C1C2CCC(CC1c1ccc(Cl)c(Cl)c1)O2` (stereo in doubt; 6f (O-914)) [listing 2 of 2 here] had an IC50 of 0.00652 µM.

As for `COC(=O)C1C2CCC(CC1c1ccc(I)cc1)O2` (stereo in doubt; 7e (O-949)) [listing 2 of 2 here], the half-maximal inhibitory concentration (IC50) was 0.072 µM.

In turn, `COC(=O)C1C(c2ccc(I)cc2)CC2CCC1N2C` (stereo in doubt; 19d) showed an IC50 of 0.0649 µM.

Compound `COC(=O)C1C2CCC(CC1c1ccc(Cl)c(Cl)c1)O2` (stereo in doubt; form 3) [listing 2 of 2 here] registered a half-maximal inhibitory concentration (IC50) of 0.031 µM.

As to `COC(=O)C1C2CCC(CC1c1ccc(F)cc1)O2` (stereo in doubt; 7b (O-899)) [listing 2 of 2 here], the IC50 was > 10 µM.

Take `COC(=O)C1C2CCC(CC1c1ccc(Cl)cc1)O2` (stereo in doubt; 7c (O-915)) [listing 2 of 2 here]: the half-inhibitory concentration (IC50) was 0.816 µM.

In the case of `COC(=O)C1C2CCC(CC1c1ccc(Cl)c(Cl)c1)O2` (stereo in doubt; 7f (O-913)) [listing 2 of 2 here], the IC50 was determined as 0.0645 µM.

With `COC(=O)C1C2CCC(CC1c1ccc(Cl)c(Cl)c1)O2` (stereo in doubt; form 1) [listing 2 of 2 here], the 50% inhibitory concentration (IC50) is 0.058 µM.

`COC(=O)C1C2CCC(CC1c1ccc(Cl)c(Cl)c1)O2` (stereo in doubt; form 2) [listing 2 of 2 here] registered a 50% inhibitory concentration (IC50) of 2.86 µM.

Compound `COC(=O)C1C2CCC(CC1c1ccc(I)cc1)O2` (stereo in doubt) [listing 2 of 2 here] gave an IC50 of 0.012 µM.

Values taken from ChEMBL document CHEMBL1130119, “2-Carbomethoxy-3-aryl-8-oxabicyclo[3.2.1]octanes: potent non-nitrogen inhibitors of monoamine transporters” (J Med Chem, 1997).
